Reference: patent US20130261114A1, “COMPOUNDS USEFUL AS INHIBITORS OF CHOLINE KINASE” (priority 2011, published 2013)
Several values for one entry are separate records, joined by “and”; a condition that tells them apart may be missing. Equal entries are not always repeated.

Target: T1, Choline Kinase alpha enzyme (Homo sapiens, UniProt P35790)
T1 construct: hChoKα1 (M1-V457) (NP_001268); GST (N); made in house; host or cells: E. coli BL21(DE3)
Test: Choline Kinase Alpha Inhibition Assay
Format: biochemical
Conditions: 20 nM enzyme, 200 μM choline chloride, 400 μM ATP, 25° C., coupled NADH absorbance at 340 nm; read-out: IC50 values (inhibiting Choline Kinase Alpha)
Description: An assay buffer solution was prepared which consisted of 100 mM Tris-HCl (pH 7.5), 100 mM KCl, and 10 mM MgCl2. An enzyme buffer containing reagents to final assay concentrations of 290 μM NADH, 2.4 mM phosphoenolpyruvate, 60 μg/mL pyruvate kinase, 20 μg/mL lactate dehydrogenase, 200 μM choline chloride substrate and 20 nM Choline Kinase alpha enzyme was prepared in assay buffer. To 32 μL of this enzyme buffer, in a 96 well plate, was added 2 μL of VRT stock solution in DMSO. The mixture was allowed to equilibrate for 10 mins at 25° C. The enzyme reaction was initiated by the addition of 32 μL stock ATP solution prepared in assay buffer to a final assay concentration of 400 μM. Initial rate data was determined from the rate of change of absorbance at 340 nm (corresponding to stoichiometric consumption of NADH) using a Molecular Devices Spectramax plate reader (Sunnyvale, Calif.) over 15 mins at 25° C. For each IC50 determination, 12 data points covering the VRT concentration range of 0-100 μM were obtained in duplicate (DMSO stocks were prepared from an initial 10 mM VRT stock with subsequent 1:2.5 serial dilutions). IC50 values were calculated from initial rate data using the Prism software package (Prism 4.0a, Graphpad Software, San Diego, Calif.).
hChoKα1 (M1-V457) (NP_001268) was codon optimized for E. coli and cloned into a modified pGEX-2T vector. Recombinant GST-tagged ChoKα1 protein was produced in E. coli strain BL21(DE3). After growing cell cultures at 37° C. until the OD600=1, the cultures were induced with 1 mM IPTG for 16 h at 30° C. and the cells were harvested as a pellet (8500 rpm, 4° C., 20 min). The protein was purified using glutathione affinity purification followed by size exclusion via Superdex-200 26/60 (GE Healthcare). See Malito, Enrico et. al., “Journal of Molecular Biology”, Volume 364, Issue 2, pages 136-151 (November 2006).

T1 sequence (P35790 whole entry): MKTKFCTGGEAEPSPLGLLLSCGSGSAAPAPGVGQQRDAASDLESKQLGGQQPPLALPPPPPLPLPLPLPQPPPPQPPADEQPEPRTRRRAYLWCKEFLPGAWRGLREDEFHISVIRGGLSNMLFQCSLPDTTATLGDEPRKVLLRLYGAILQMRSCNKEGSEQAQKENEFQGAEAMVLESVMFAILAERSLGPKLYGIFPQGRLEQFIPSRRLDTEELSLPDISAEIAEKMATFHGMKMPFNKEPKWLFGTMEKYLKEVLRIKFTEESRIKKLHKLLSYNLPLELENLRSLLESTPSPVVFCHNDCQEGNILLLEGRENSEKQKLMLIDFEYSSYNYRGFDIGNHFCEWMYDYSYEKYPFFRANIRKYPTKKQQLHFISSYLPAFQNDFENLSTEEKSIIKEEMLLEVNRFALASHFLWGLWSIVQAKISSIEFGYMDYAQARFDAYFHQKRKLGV

## Cc1ccccc1C(O)(Cc1ccccc1)C1CN2CCC1CC2 (single isomer, unassigned) [Compound I-78, 1-(o-tolyl)-2-phenyl-1-quinuclidin-3-yl-ethanol]
  IC50: < 100 nM

## Cc1ccccc1C(O)(Cc1ccccc1)C1CN2CCC1CC2 (single isomer, unassigned) [Compound I-84, 1-(o-tolyl)-2-phenyl-1-quinuclidin-3-yl-ethanol]
  IC50: 1000 to 75000 nM

## CN(C)c1ccc(CCC(O)(c2ccc(N(C)C)cc2)C2CN3CCC2CC3)cc1 (centres unmarked) [Compound I-17]
  IC50: 1000 to 75000 nM

## CN(C)c1ccc(C(O)(c2ccc(N(C)C)cc2)C2CN3CCC2CC3)cc1 (centres unmarked) [Compound I-79]
  IC50: 100 to 1000 nM and 1000 to 75000 nM

## OC(Cc1ccccc1)(c1ccccc1)C1CN2CCC1CC2 (centres unmarked) [Compound I-80]
  IC50: 100 to 1000 nM

## OC(c1ccc(Cl)s1)(c1ccc(Cl)s1)C1CN2CCC1CC2 (centres unmarked) [Compound I-81]
  IC50: 100 to 1000 nM

## OC(c1cccc(Cl)c1)(c1cccc(Cl)c1)C1CN2CCC1CC2 (centres unmarked) [Compound I-82]
  IC50: 1000 to 75000 nM

## OC(Cc1ccccc1)(Cc1ccccc1)C1CN2CCC1CC2 (centres unmarked) [Compound I-83]
  IC50: 1000 to 75000 nM

## OC(c1ccccc1)(c1ccccc1Cl)C1C[N@]2CC[C@@H]1CC2 (some centres unmarked) [Compound I-85]
  IC50: 100 to 1000 nM

## OC(c1ccccc1)(c1ccc(Cl)cc1)C1C[N@]2CC[C@@H]1CC2 (some centres unmarked) [Compound I-86]
  IC50: 100 to 1000 nM

## OC(c1ccccc1)(c1ccccc1)C1CN2CCC1CC2 (centres unmarked) [Compound I-87]
  IC50: 100 to 1000 nM
